Target: T1, LTD4 /E4 receptors (Cavia porcellus, UniProt Q2NNR5)
T1 construct: membrane fractions, containing the LTD4 /E4 receptors, are prepared from guinea-pig lung parenchyma; from tissue; host or cells: guinea-pig lung parenchyma membrane fractions
T1 sequence (Q2NNR5 1-340): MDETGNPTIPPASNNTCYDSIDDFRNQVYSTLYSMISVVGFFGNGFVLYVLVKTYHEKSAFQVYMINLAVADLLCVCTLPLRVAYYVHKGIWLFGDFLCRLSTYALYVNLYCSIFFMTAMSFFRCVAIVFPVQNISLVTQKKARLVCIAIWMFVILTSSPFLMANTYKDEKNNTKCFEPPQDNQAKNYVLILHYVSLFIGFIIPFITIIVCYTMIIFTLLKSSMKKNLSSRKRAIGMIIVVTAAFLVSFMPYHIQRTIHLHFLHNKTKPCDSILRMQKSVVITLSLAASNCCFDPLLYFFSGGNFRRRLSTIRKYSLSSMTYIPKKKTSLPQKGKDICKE
Assay: receptor-ligand binding assay (3H-LTD4)
Details: membrane fractions from guinea-pig lung parenchyma, 1nM 3H-LTD4, 30 minutes at 22° C.; Ki from IC50 by Cheng-Prusoff
Procedure: According to this procedure, membrane fractions, containing the LTD4 /E4 receptors, are prepared from guinea-pig lung parenchyma and incubated for 30 minutes at 22° C. with 1nM ^3 H-LTD4 in the absence or presence of tested antagonist. Specific binding, determined under conditions that prevent enzymatic metabolism of ^3 H-LTD4, is the net result of total ^3 H-LTD4 binding minus nonspecific binding determined in the presence of 1-2000 fold excess unlabelled LTD . Each assay is done in duplicate and results (Ki values) are typically a mean of several such determinations in individual receptor batches.
The % inhibition by a tested antagonist, relative to control binding (vehicle alone), is expressed as a fraction of log[antagonist] concentration (in molar units) and the half-maximal inhibition (IC50) determined by computerized non-linear least-square analysis. The binding constant (Ki) is then calculated from IC50 by the Cheng-Prusoff equation: [formula] where [L] is ^3 H-LTD4 concentraton and Kd is the affinity constant of LTD4 to this receptor, determined separately for each batch. (Biochem. Pharmacol. 22: 3099-3108, 1973).

Ki: 3.16 nM
Structure (SMILES): CCC(C)CNC(=O)c1ccc2cccc(Cc3ccc(C(=O)NS(=O)(=O)c4ccccc4C)cc3OC)c2c1 (stereo not shown) [Example 10, 3-Methoxy-4-[7-(2-methylbutylcarbamoyl)naphth-1-ylmethyl]-N-(2-methylphenylsulfonyl)benzamide]

Reference: patent US5095038A, “Carbocyclic compounds useful as leukotriene antagonists” (ICI Americas Inc., priority 1989, dated 1992)
